Assay results: patent US10392667B2, “Methods and devices for predicting treatment efficacy of fulvestrant in cancer patients” (Medical Prognosis Institute A/S, priority 2013, dated 2019)
Like-named read-outs stand apart in the source and are kept apart here.

Key:
[1] = system: ER-positive, locally advanced breast cancer; assay: NEWEST Phase II trial: tumor response by 3D ultrasound after 16 weeks of neoadjuvant fulvestrant; assay type: in vivo, human; conditions: for overall response rate (CR+PR): 16 weeks
Description: NEWEST (Neoadjuvant Endocrine Therapy for Women with Estrogen-Sensitive Tumors; 9238IL/0065) was a randomized, open-label, multicenter, Phase II study involving postmenopausal women with newly diagnosed, ER-positive, locally advanced breast cancer who had received no prior breast cancer treatment ([…]). Eligible patients were randomized 1:1 to receive either fulvestrant 500 mg or 250 mg for 16 weeks preceding surgery. Fulvestrant 500 mg was given as two 5 ml intramuscular injections on days 0, 14, 28 and every 28 days thereafter for 16 weeks. Fulvestrant 250 mg was given as one 5 ml injection on days 0, 28 and every 28 days thereafter for 16 weeks (Kuter et al., Breast Cancer Res. Treat., 133:237-246, 2012).
A total of 211 patients were enrolled in NEWEST. Of these, 173 completed the study and 121 met all protocol criteria. Fresh frozen pre-treatment samples with sufficient RNA (100 ng) was available from 44 patients. Two samples were discarded due to array quality, leaving 42 patients. Of these 42 patients, 22 were in the 500 mg treatment group and 20 were in the 250 mg treatment group.
During the 16-week treatment phase, patients underwent clinical breast examination every 4 weeks. Tumor volume was measured by 3D ultrasound at baseline, week 4, and after 16 weeks of treatment before definitive surgery. Tumor response was defined as complete response (CR, disappearance of all lesions), partial response (PR, at least 65% reduction in tumor volume by 3D ultrasound), disease progression (PD, at least 73% increase in tumor volume), or stable disease (SD, neither partial response nor disease progression). The reduction for partial response was in relation to baseline but for progressive disease was in relation to the smallest tumor volume at any preceding assessment. Objective responders were those patients with a complete response or partial response.

NCI60 cell lines = conditions: mean over all NCI60 cell lines (FIG. 8); cited from earlier work
Ki67 = conditions: after 4 weeks of treatment, patients, cited from earlier work
early breast cancer = assay: Trial 223: neoadjuvant anastrozole, response according to RECIST; assay type: in vivo, human; conditions: patients with outcome information
Description: Trial 223 (Smith et al., J. Clin. Oncol., 25:3816-3822, 2007) was a placebo-controlled trial of neoadjuvant anastrozole alone or with gefitinib in early breast cancer. We used pre-treatment samples from patients from arm B and C: anastrozole 1 mg/d for the duration of the 16 week period plus placebo 1 tablet/d orally for 2 weeks. Patients in arm B were followed by gefitinib 250 mg/d orally for 14 weeks whereas patients in arm C continued with placebo for 14 weeks. We received pre-treatment biopsy material from 21 patients in arms B and C with Ki67 measurements after 2 weeks. We received pre-treatment biopsy material from 16 patients in arm C with outcome information according to guidelines set forth in Response Evaluation Criteria in Solid Tumors (RECIST).
The prediction score of the invention (e.g., prediction score for fulvestrant) was tested for the ability to predict response to aromatase inhibition in a small cohort of 21 patients treated with neoadjuvant anastrozole in a similar protocol to that used to test fulvestrant. […] In addition there was no correlation between prediction score and change in Ki67 produced after 2 weeks of anastrozole treatment (N=21, P=0.9).

[2] = 250 mg fulvestrant, patients with array data
[3] = 500 mg fulvestrant for 16 weeks, patients with array data

For `C[C@]12CC[C@@H]3c4ccc(O)cc4C[C@@H](CCCCCCCCC[S+]([O-])CCCC(F)(F)C(F)(F)F)[C@H]3[C@@H]1CC[C@@H]2O` (stereo partly drawn) [Fulvestrant, fulvestrant], the “overall response rate (CR+PR)” value ([1]; 250 mg fulvestrant, 19 patients with array data) was 26%, the “number of partial responders” value [1, 2] was 5 and the “number of patients with stable disease” value [1, 2] was 13. For the same compound, the “number of progressive disease patients” value [1, 2] was 1, the “number of non-responders (SD+PD)” value [1, 3] was 9 and the “number of responders (PR)” value [1, 3] was 11. The “overall response rate (CR+PR)” value ([1]; 500 mg fulvestrant) was 50%, the GI50 (NCI60 cell lines) was 63 µM and the “average reduction in Ki67” value (Ki67; 250 mg dose) was 47%. The “average reduction in Ki67” value (Ki67; 500 mg dose) was 79%.

With `CC(C)(C#N)c1cc(Cn2cncn2)cc(C(C)(C)C#N)c1` [anastrozole] the number of nonresponders (early breast cancer) was “Seven” and the number of responders (early breast cancer) was “Nine”.

In the case of `O=C(c1ccc(OCCN2CCCCC2)cc1)c1c(-c2ccc(O)cc2)sc2cc(O)ccc12` [raloxifene], the GI50 (NCI60 cell lines) is listed as 8.4 µM.

In the case of `CC/C(=C(\c1ccccc1)c1ccc(OCCN(C)C)cc1)c1ccccc1` [tamoxifen], the GI50 (NCI60 cell lines) is listed as 4.3 µM.

In the case of `CN(C)CCOc1ccc(/C(=C(/CCCl)c2ccccc2)c2ccccc2)cc1` [toremifene], the GI50 (NCI60 cell lines) is listed as 13 µM.
